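Grown in 96-well plates, cells were treated for 48 hours with each compound at five concentrations. Insufficient inhibition: endpoint recorded as highest concentration tested. At the TGI there is no net growth.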
Legend:
Experiment in all cases: NCI-60 cell line screen, 48 h
OVCAR-3 ovarian = system: OVCAR-3 ovarian
RXF 393 renal = system: RXF 393 renal
786-0 renal = system: 786-0 renal
NCI-H226 lung = system: NCI-H226 lung
CAKI-1 renal = system: CAKI-1 renal
SNB-75 CNS = system: SNB-75 CNS
SK-MEL-28 melanoma = system: SK-MEL-28 melanoma
K-562 leukemia = system: K-562 leukemia
MCF7 breast = system: MCF7 breast
A498 renal = system: A498 renal

Compound | TGI (OVCAR-3 ovarian) | TGI (RXF 393 renal) | TGI (786-0 renal) | TGI (NCI-H226 lung) | TGI (CAKI-1 renal) | TGI (SNB-75 CNS) | TGI (SK-MEL-28 melanoma) | TGI (K-562 leukemia) | TGI (MCF7 breast) | TGI (A498 renal)
CC(C)(C)OC(=O)c1ccc(NCC2=C(Br)C(=O)C=CC2=O)cc1 | 27.7 µM | 37.5 µM | 37.5 µM | > 90.1 µM | 26.8 µM | > 83.3 µM | 41.2 µM | > 58 µM | 48.4 µM | –
COc1cc(N(CCC#N)CCC#N)ccc1/C=N\NC(=O)c1ccc(C)cc1 | > 100 µM | > 100 µM | > 100 µM | > 100 µM | > 100 µM | > 100 µM | > 100 µM | > 100 µM | – | –
[N-]=[N+]=NCC(O)Cn1cnc2c(NC(=O)c3ccccc3)ncnc21 (centres undefined) | – | > 100 µM | > 100 µM | > 100 µM | > 100 µM | > 100 µM | > 100 µM | > 100 µM | – | > 100 µM
CC(=O)C(C)(C)CCC(C)(C)C(C)=O | – | > 100 µM | > 100 µM | > 100 µM | > 100 µM | > 100 µM | > 100 µM | > 100 µM | > 100 µM | –
O=[N+]([O-])/C(C(Cl)=C(Cl)Cl)=C(/Nc1cccc2cccnc12)n1nnc2ccccc21 | 23.7 µM | – | 43.8 µM | 67.4 µM | 26.3 µM | 67.8 µM | 33.5 µM | > 100 µM | 46.3 µM | –
NC(=S)NC/C=C/Cl | > 100 µM | > 100 µM | > 100 µM | > 100 µM | > 100 µM | > 100 µM | – | > 100 µM | > 100 µM | –
O=c1c2ccccc2nc2ccc3c(Cl)[nH][nH]c3c12 | > 100 µM | > 100 µM | > 100 µM | > 48.4 µM | 85.3 µM | > 100 µM | > 100 µM | > 100 µM | – | > 100 µM
CCOC(=O)C1=C(O)c2ccc(C)cc2C(=O)C1=O | > 100 µM | > 100 µM | > 100 µM | > 100 µM | > 100 µM | > 100 µM | > 100 µM | > 100 µM | – | > 100 µM
CC(C)c1cc(C(C)C)c(S(=O)(=O)N=[N+]=[N-])c(C(C)C)c1 | > 100 µM | > 100 µM | > 100 µM | > 100 µM | > 100 µM | > 100 µM | > 100 µM | > 100 µM | – | –
Clc1ccc(C2=CCN3CC=C(c4ccc(Cl)cc4)C23)cc1 | 25.1 µM | – | 24.1 µM | 43.2 µM | 27.4 µM | – | 28 µM | 45.2 µM | 28.6 µM | –
CSc1cnc2ccccc2c1Sc1c[nH]c2ccccc2c1=O | 22 µM | 37.6 µM | 34.8 µM | 33 µM | – | 10.3 µM | 43.5 µM | > 58.1 µM | – | 47.4 µM
Clc1cc(Cl)ncn1 | > 100 µM | > 100 µM | > 100 µM | > 100 µM | > 100 µM | > 100 µM | > 100 µM | > 100 µM | > 100 µM | –
CCC(=O)OC1CCn2c1nc1c2C(=O)C(C)=C(NC(C)=O)C1=N (centres undefined) | 3.31 µM | – | 6.06 µM | 4.63 µM | 1.94 µM | 4.45 µM | 3.5 µM | > 100 µM | – | 4.21 µM
CCN(CC)CC1CCCCN1CC(=O)N1CC(C)C(=O)Nc2ccccc21 (centres undefined) | > 100 µM | – | > 100 µM | > 100 µM | > 100 µM | – | > 100 µM | > 100 µM | – | > 100 µM
Oc1ccc(Oc2cc3c(cc2Oc2ccc(O)cc2)-c2nc-3nc3[nH]c(nc4nc(nc5[nH]c(n2)c2cc(Oc6ccc(O)cc6)c(Oc6ccc(O)cc6)cc52)-c2cc(Oc5ccc(O)cc5)c(Oc5ccc(O)cc5)cc2-4)c2cc(Oc4ccc(O)cc4)c(Oc4ccc(O)cc4)cc32)cc1 | > 100 µM | – | > 100 µM | > 100 µM | > 100 µM | > 100 µM | > 100 µM | > 100 µM | > 100 µM | –
O=C(O)c1ccccc1C1c2ccccc2Oc2ccccc21 | 90.1 µM | > 100 µM | > 100 µM | 65.7 µM | > 100 µM | 85.8 µM | > 100 µM | > 100 µM | – | 82.1 µM
COc1ccc(C)cc(=O)c1O | > 100 µM | 90 µM | > 100 µM | > 100 µM | > 100 µM | > 100 µM | > 100 µM | > 100 µM | – | > 100 µM
Cc1nc(-c2cc3ccccc3oc2=O)cs1 | – | > 100 µM | > 100 µM | > 100 µM | > 100 µM | – | > 100 µM | > 100 µM | > 100 µM | –
COc1cc2c(c(OC)c1OC)-c1ccc(SC)c(=O)cc1[C@@H](NCc1ccc([N+](=O)[O-])cc1)CC2 | 0.00965 µM | 0.00781 µM | > 100 µM | 0.0134 µM | > 100 µM | > 100 µM | – | 37.5 µM | – | 0.0531 µM
O=C1C2C=CC(n3[nH]c(=O)n(Cc4ccccc4)c3=O)CC2C(=O)N1c1ccc(Br)cc1 (centres undefined) | > 100 µM | > 100 µM | > 100 µM | > 100 µM | > 100 µM | > 100 µM | > 100 µM | > 100 µM | – | > 100 µM

Source: PubChem BioAssay (NCI)
